Active and inactive are the calls of the source. The calls are words filed in the database; no cut-off is given here.
How the values were obtained:
Toll-like receptor 7 [1] = target: T1, Toll-like receptor 7 (Homo sapiens, UniProt Q9NYK1); assay: Agonist activity at TLR7 (unknown origin)
T1 sequence (Q9NYK1 whole entry): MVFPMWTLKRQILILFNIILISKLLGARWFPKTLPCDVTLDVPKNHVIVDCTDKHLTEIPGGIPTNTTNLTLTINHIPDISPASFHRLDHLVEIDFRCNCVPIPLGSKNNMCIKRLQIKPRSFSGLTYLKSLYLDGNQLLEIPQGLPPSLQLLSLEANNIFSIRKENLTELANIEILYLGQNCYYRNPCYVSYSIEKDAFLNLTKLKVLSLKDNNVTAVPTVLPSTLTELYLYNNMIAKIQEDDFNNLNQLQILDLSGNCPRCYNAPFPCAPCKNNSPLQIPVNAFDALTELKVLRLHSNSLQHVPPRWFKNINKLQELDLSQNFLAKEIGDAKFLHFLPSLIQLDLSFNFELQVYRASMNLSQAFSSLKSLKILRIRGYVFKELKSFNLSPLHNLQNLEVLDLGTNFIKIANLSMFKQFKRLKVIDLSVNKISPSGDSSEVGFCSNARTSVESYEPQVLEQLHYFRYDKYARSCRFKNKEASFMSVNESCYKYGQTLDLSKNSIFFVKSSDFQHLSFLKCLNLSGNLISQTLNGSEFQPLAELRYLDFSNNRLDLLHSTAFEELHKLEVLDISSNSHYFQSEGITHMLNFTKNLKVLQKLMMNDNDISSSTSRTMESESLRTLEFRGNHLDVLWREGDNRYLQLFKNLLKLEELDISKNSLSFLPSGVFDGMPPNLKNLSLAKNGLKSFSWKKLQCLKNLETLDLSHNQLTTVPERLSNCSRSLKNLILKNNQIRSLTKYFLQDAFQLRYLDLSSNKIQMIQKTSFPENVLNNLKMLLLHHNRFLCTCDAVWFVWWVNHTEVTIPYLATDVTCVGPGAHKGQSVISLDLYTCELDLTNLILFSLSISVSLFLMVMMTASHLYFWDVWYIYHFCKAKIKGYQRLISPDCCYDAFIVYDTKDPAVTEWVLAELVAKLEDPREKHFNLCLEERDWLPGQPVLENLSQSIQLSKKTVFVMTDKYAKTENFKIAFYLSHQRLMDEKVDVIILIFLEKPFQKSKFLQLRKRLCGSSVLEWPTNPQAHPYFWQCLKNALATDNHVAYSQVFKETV

Toll-like receptor 7 [2] = target: T1, Toll-like receptor 7; assay: Agonist activity at human TLR7 expressed in HEK-blue TLR cells measured for 18 to 19 hrs by SEAP reporter gene based assay; type: cell-based
Toll-like receptor 8 = target: T2, Toll-like receptor 8 (Homo sapiens, UniProt Q9NR97); assay: Agonist activity at human TLR8 expressed in HEK-blue TLR cells measured for 18 to 19 hrs by SEAP reporter gene based assay; type: cell-based
T2 sequence (Q9NR97 whole entry): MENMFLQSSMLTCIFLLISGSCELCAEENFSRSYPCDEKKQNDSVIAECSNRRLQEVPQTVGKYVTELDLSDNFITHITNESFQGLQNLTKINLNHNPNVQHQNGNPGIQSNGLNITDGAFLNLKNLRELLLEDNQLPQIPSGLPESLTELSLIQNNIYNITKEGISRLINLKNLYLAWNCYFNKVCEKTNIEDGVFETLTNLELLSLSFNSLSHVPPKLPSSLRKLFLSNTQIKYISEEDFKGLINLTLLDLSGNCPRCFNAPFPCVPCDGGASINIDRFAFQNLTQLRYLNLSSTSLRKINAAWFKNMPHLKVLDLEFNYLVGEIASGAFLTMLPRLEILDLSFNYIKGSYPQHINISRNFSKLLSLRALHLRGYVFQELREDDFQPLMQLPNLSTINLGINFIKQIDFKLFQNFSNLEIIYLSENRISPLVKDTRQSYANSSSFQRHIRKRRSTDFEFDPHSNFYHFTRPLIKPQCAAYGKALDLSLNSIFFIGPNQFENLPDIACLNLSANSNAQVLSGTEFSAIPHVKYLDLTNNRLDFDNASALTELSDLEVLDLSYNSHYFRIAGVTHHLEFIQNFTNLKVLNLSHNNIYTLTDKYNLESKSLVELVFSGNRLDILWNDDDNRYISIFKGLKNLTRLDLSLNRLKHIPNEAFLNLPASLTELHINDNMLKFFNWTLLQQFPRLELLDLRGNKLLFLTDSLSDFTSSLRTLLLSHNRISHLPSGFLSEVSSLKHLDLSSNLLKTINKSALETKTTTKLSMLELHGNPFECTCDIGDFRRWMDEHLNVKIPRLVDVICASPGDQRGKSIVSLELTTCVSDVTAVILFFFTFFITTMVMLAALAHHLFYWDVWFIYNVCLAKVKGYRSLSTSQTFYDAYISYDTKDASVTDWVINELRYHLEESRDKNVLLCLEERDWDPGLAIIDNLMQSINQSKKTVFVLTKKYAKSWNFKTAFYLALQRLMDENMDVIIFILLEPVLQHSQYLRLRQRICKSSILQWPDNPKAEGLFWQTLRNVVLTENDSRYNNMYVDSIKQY

Mus musculus [3] = species: Mus musculus; assay: Immunostimulatory activity in BALB/c mouse vaccinated with inactivated PR8 (A/H1N1) assessed as animal survival at 0.1 ug measured 3 weeks after immunization; type: functional; conditions: dose 0.1 µg
Toll-like receptor 7 [4] = target: T3, Toll-like receptor 7 (Mus musculus, UniProt P58681); assay: Agonist activity at mouse TLR7 expressed in HEK293 cells co-expressing NF-kappaB/AP-1 inducible SEAP reporter gene measured for 24 hrs by colorimetric analysis; type: cell-based
T3 sequence (P58681 whole entry): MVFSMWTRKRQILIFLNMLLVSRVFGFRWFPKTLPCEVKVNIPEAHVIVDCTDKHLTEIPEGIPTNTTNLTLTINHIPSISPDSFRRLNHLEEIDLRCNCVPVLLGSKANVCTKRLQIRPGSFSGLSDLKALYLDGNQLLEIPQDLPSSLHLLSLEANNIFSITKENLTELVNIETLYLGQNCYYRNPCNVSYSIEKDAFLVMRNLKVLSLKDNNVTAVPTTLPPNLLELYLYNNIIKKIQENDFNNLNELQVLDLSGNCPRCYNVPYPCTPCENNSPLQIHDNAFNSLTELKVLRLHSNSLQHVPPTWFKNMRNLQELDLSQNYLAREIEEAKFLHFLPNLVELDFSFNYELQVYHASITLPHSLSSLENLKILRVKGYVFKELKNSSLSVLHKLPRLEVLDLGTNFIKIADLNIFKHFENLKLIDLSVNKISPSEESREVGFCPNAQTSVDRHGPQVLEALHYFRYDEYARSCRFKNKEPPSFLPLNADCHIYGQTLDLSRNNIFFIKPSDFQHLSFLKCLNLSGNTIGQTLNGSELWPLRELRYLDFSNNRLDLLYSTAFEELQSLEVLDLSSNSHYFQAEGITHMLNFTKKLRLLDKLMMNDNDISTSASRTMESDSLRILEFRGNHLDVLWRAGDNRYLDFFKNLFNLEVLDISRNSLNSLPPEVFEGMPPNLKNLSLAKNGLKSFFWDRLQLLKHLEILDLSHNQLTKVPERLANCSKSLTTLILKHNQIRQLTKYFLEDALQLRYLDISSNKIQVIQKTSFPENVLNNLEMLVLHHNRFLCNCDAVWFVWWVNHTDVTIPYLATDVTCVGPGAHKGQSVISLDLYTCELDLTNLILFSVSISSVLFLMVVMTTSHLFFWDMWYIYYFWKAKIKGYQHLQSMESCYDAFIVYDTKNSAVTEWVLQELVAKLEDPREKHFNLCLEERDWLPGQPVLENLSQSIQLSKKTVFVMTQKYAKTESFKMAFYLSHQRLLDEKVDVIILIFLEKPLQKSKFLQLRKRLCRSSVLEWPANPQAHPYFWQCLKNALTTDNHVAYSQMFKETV

Mus musculus [5] = assay: In-vivo protection against influenza A virus PR8 (A/H1N1) infection in immunocompetent BALB/c mouse model assessed as animal survival rate at 0.01 ug pretreated with compound for 3 weeks followed by viral infection and measured daily for 2 weeks; type: functional; conditions: dose 0.01 µg; time 5 weeks
Mus musculus [6] = species: Mus musculus; assay: Immunostimulatory activity in BALB/c mouse vaccinated with inactivated PR8 (A/H1N1) assessed as animal survival at 0.01 ug measured 3 weeks after immunization; type: functional; conditions: dose 0.01 µg
Mus musculus [7] = species: Mus musculus; assay: Immunostimulatory activity in BALB/c mouse vaccinated with inactivated PR8 (A/H1N1) assessed as animal survival at 1 ug measured 3 weeks after immunization; type: functional; conditions: dose 1 µg
Mus musculus [8] = assay: In-vivo protection against influenza A virus PR8 (A/H1N1) infection in immunocompetent BALB/c mouse model assessed as animal survival rate at 1 ug pretreated with compound for 3 weeks followed by viral infection and measured daily for 2 weeks; type: functional; conditions: dose 1 µg; time 5 weeks
Mus musculus [9] = species: Mus musculus; assay: Immunostimulatory activity in BALB/c mouse vaccinated with inactivated PR8 (A/H1N1) assessed as decrease in body weight at 1 ug measured 3 weeks after immunization; type: functional, organism-based; conditions: dose 1.0 µg
[10] = In-vivo activation of mouse TLR7-mediated innate immune response in immunocompetent BALB/c mouse vaccinated with inactivated influenza A virus H1N1 A/Puerto Rico/8/1934 assessed as fold increase in IgG2a level in serum at 1 ug measured 3 weeks after immunization in presence of N6-butyl-7-(4-((diethylamino)methyl)-2-methoxybenzyl)-7H-purine-2,6-diamine by ELISA analysis; type: functional; conditions: dose 1 µg
[11] = target: T4, Toll-like receptor 7 (Mus musculus) (UniProt P58681); assay: Agonist activity at mouse TLR7 expressed in HEK293 cells co-expressing NF-kappaB/AP-1 inducible SEAP reporter gene at 33 uM measured for 24 hrs by colorimetric analysis relative to control; type: cell-based
T4 sequence (whole entry): T3 sequence (P58681 whole entry)

Compound: CC(C)Cn1cnc2c(N)nc3ccccc3c21 [IMIQUIMOD]
- EC50 (Toll-like receptor 7 [1]): 202 nM

Compound: CCCCNc1nc(N)nc2ncn(Cc3ccc(CN4CCN(C)CC4)cc3OC)c12
- EC50 (Toll-like receptor 7 [2]): 24.7 nM
- EC50 (Toll-like receptor 8; hek-blue tlr): < 10000 nM

Compound: CCCCNc1nc(N)nc2ncn(Cc3ccc(CN4CCNCC4)cc3OC)c12
- EC50 (Toll-like receptor 7 [2]): 169 nM

Compound: CCCCNc1nc(N)nc2ncn(Cc3ccc(CN(C)C)cc3OC)c12
- EC50 (Toll-like receptor 7 [2]): 29.7 nM

Compound: CCCCNc1nc(N)nc2ncn(Cc3ccc(CN(CC)CC)cc3OC)c12
- Survival (Mus musculus [3]): 33.3%
- EC50 (Toll-like receptor 7 [2]): 17.5 nM
- EC50 (Toll-like receptor 7 [4]): 41.7 nM
- Survival (Mus musculus [5]): 16.7%
- Survival (Mus musculus [6]): 16.7%
- Survival (Mus musculus [7]): 66.7%
- Survival (Mus musculus [8]): 100%

Compound: CCCCNc1nc(N)nc2ncn(Cc3ccc(CN4CCCCC4)cc3OC)c12
- EC50 (Toll-like receptor 7 [2]): 20.5 nM

Compound: CCOCc1nc2c(N)nc3ccccc3c2n1CC(C)(C)C
- EC50 (Toll-like receptor 7 [4]): 299 nM

Compound: CCCN(CCC)C(=O)C1=Cc2ccc(-c3ccc(C(=O)N4CCCC4)cc3)cc2N=C(N)C1 [MOTOLIMOD]
- EC50 (Toll-like receptor 8): 83.2 nM

Compound: CCCCOc1nc(N)c2c(n1)N(Cc1cccc(CN3CCCC3)c1)CC(=O)N2 [VESATOLIMOD]
- EC50 (Toll-like receptor 7 [4]): 4570 nM
- Activity (Mus musculus [9]): Active
- fold change (FC) [10]: 5.2
- Emax [11]: 0.657%

Compound: COc1cc(CO)ccc1Cn1cnc2nc(N)nc(NCc3ccccc3)c21
- EC50 (Toll-like receptor 7 [2]): 2800 nM
